Experimental data from patent US20240343762A1, “USE OF PROTON PUMP MODULATOR IN PREPARING REAGENT” (SHANGHAI QUIETD BIOTECHNOLOGY CO. LTD., priority 2021, published 2024).
Ends that are not written are not given here.

Assays:
[1] = tested on: hippocampal CA1 pyramidal neurons; assay: Whole-cell patch-clamp recording of spontaneous excitatory postsynaptic current (sEPSC) in hippocampus brain slice; assay type: cell-based, mouse; conditions: sEPSC at -70 mV, perfusion for 5 min; 5 μM in Embodiment 3
Procedure: 0.1-0.15 ml of 20% ethyl carbamate was injected into the abdominal cavity of a C57 mouse of 2 to 3 months old for anesthesia; a head was quickly cut, and brain tissues were stripped and put into artificial cerebrospinal fluid (ACSF) ice-water mixed liquid into which mixed gas (95% O2 and 5% CO2) was introduced in advance, and stood for 2 min; the ACSF included the following components: […] of NaCl, […] of KCl, 0.12 mM of NaH2PO4, 0.25 mM of CaCl2), 0.12 mM of MgCl2, 25 mM of NaHCO3 and 11 mM of glucose. A hippocampus coronal brain slice of 350 μm was cut by a vibration slicer. The hippocampus coronal brain slice was placed into the ACSF at room temperature for more than 30 min for recovery, and then the brain slice was put into a record slot; continuous perfusing was performed at a speed of 2 to 2.5 ml/min by the ACSF into which the mixed gas was introduced; blind-binding sealing was performed on hippocampus CA1 pyramidal neuron under an Olympic BX51 upright microscope; whole-cell patch-clamp was performed by an Axon700B amplifier and a 1550B digital-to-analog converter; spontaneous excitatory postsynaptic current (sEPSC) of the pyramidal neuron was recorded by a voltage clamp under the clamp voltage of −70 mV; after recording for 5 min, synthetic polypeptides such as 5 μM QD202 or QD202 N′-1, C′-1 and C′-2 for 5 min; and then perfusing and flushing were performed for 10 min by the ACSF. The recorded data was analyzed by Minianalysis software. […]

[2] = molecular target: T1, ATP6V1B2 protein of mouse brain hippocampus tissue (endogenous) (mouse, UniProt P62814 1-511); assay: immunoprecipitation with biotin antibody from mouse hippocampus lysate, SDS-PAGE, mass spectrometry
T1 construct: Endogenous protein in tissue lysate; also called band of about 55 kDa
T1 sequence (P62814 whole entry): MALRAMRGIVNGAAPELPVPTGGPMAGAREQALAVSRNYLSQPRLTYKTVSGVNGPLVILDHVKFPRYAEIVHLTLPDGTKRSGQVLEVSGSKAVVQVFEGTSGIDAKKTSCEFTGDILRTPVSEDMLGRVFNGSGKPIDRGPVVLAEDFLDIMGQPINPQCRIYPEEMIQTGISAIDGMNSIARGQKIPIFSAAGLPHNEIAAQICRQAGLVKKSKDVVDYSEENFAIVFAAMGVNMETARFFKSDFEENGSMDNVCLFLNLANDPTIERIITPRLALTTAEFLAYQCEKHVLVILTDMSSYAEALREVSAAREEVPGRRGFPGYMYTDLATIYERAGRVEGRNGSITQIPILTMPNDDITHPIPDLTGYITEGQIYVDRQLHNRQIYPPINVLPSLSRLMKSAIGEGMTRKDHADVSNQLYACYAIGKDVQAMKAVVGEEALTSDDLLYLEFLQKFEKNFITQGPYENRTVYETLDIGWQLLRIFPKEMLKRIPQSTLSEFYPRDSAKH

## QD202 C′-1: polypeptide of SEQ ID NO. 3; QD202 with one amino acid removed at the C end (YGRKKRRQRRRSPVDVVC; QD202 C -1)
[1]
  spontaneous excitatory synaptic transmitter release of hippocampal CA1 neurons: effect similar to that of QD202 can still be observed

## QD202 C′-2: polypeptide of SEQ ID NO. 4; QD202 with two amino acids removed at the C end (YGRKKRRQRRRSPVDVV; QD202 C -2)
[1]
  spontaneous excitatory synaptic transmitter release of hippocampal CA1 neurons: effect similar to that of QD202 cannot be observed

## QD202 N′-1: polypeptide of SEQ ID NO. 2; QD202 with one amino acid removed at the N end (YGRKKRRQRRRPVDVVCS; QD202 N -1)
[1]
  spontaneous excitatory synaptic transmitter release of hippocampal CA1 neurons: effect similar to that of QD202 cannot be observed

## YGRKKRRQRRRVCDSSVVP-biotin [Disordered control QD201 with a biotin label at the C' end]
[2]
  binding result: no binding
